Tests used:
SD rats = assay: Loss of righting reflex in SD rats, intragastric administration; type: in vivo; conditions: for rate of loss of righting reflex: within 4 h
Text: To determine the threshold for the loss of righting reflex in SD rats after intragastric administration of compound 41 in order to evaluate the sedative effect and therapeutic safety window of compound 41.
Male SD rats weighing 180-200 g, as experimental animals, were acclimatized for 7 days after arriving at the animal facility and were randomly divided into groups based on weight one day before experimentation. The rats were fasted overnight before experimentation but had access to water. Doses of compound 41 were designed in a 0.8-fold gradient, and the doses were set at 39 mg/kg, 31.25 mg/kg, 25 mg/kg, 20 mg/kg, and 16 mg/kg, with 10 rats in each group. Observations were made on the loss of righting reflex within 4 h of intragastrically administering the compound to the rats.

[1] = In vitro liver microsomal stability assay, rat; type: in vitro ADME
Method in brief: (§1)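 Test compound at […] was incubated at 37° C with 0.5 mg/mL rat or human liver microsomes, 1 mM NADPH and 3 mM MgCl2, in triplicate, sampled 0–60 min. Remaining parent was quantified by LC-MS/MS, giving half-life and microsomal and hepatic intrinsic clearance.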

[2] = In vitro liver microsomal stability assay, human; type: in vitro ADME
Method in brief: as §1

[3] = target: T1, α4β3δ GABA receptors (α4β3δ-HEK-FlpIn-TRex stable cell strain) (Homo sapiens, UniProt P28472+P48169); assay: Whole-cell patch clamp, extrasynaptic functional activity (positive allosteric regulation of GABA-induced current); type: cell-based; conditions: patch clamp -60 mV, GABA at EC10-20, α4β3δ-HEK-FlpIn-TRex cells
T1 construct: expressed in transfected cells
T1 sequence (P48169 36-554): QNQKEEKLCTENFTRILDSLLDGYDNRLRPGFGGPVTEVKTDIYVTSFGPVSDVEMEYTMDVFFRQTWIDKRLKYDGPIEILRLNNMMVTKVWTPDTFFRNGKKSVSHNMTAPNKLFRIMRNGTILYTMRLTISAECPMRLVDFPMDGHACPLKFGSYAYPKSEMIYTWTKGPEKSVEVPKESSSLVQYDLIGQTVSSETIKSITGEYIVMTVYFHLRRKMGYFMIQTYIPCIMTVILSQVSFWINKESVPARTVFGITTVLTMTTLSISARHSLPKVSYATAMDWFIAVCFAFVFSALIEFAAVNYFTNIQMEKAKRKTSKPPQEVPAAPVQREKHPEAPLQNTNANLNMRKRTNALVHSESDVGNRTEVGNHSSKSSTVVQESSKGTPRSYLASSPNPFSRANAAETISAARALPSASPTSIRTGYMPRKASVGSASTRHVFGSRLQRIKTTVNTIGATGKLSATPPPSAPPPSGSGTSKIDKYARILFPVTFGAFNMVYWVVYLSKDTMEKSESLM
T1 sequence (P28472 26-473): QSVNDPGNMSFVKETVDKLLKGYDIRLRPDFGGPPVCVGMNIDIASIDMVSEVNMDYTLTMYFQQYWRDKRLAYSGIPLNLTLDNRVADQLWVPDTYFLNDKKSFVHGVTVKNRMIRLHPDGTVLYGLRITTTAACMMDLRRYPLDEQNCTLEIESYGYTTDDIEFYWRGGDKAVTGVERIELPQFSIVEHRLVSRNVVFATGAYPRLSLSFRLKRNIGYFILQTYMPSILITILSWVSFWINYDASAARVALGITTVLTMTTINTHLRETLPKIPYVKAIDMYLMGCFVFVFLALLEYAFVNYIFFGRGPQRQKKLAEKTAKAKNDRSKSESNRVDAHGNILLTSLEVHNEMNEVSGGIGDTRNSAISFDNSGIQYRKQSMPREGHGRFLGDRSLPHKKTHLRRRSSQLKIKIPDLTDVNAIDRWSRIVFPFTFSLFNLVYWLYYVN
T1 sequence (O14764 25-452 partner): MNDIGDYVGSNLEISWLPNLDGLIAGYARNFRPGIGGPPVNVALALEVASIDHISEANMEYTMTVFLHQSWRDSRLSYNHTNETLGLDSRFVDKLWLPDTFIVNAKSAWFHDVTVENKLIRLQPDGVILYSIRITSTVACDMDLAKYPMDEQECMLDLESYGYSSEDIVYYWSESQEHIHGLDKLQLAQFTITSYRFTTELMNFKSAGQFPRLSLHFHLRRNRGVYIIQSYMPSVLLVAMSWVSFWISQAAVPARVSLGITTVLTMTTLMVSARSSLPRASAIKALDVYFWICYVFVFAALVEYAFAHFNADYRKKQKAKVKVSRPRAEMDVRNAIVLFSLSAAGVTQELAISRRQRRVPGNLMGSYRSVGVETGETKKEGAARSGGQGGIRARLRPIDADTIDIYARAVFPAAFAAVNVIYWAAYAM
Method in brief: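 Tetracycline-induced stable lines were used: α4β3δ in HEK-FlpIn-TRex and α1β2γ2 in CHO-TRex. Whole-cell patch clamp was run at −60 mV with GABA at EC10-20 ([…]) and compound perfused for 30 s before GABA, with extracellular pH 7.4. Fold increase in GABA current over ≥5 concentrations on ≥3 cells gave EC50 and Emax by Hill fit.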

With `C[C@@]1(O)CC[C@H]2[C@H](CC[C@@H]3[C@@H]2CC[C@]2(C)[C@@H](C(=O)Cn4cnn(-c5cc(F)nc(F)c5)c4=O)CC[C@@H]32)C1` [Compound 41] the “rate of loss of righting reflex” value (SD rats; 16 mg/kg intragastric, SD rats) was 0%, the “rate of loss of righting reflex” value (SD rats; 20 mg/kg intragastric, SD rats) was 0% and the “rate of loss of righting reflex” value (SD rats; 25 mg/kg intragastric, SD rats) was 50%. The “rate of loss of righting reflex” value (SD rats; 31.25 mg/kg intragastric, SD rats) was 90%, the “rate of loss of righting reflex” value (SD rats; 39 mg/kg intragastric, SD rats) was 100% and the “threshold for loss of righting reflex relative to effective dose for the antiepileptic convulsion effect” value (SD rats; intragastric, 20 mg/kg vs 3.5 mg/kg, rats) was 5.7 times. For the same compound, the “therapeutic safety window (in words)” value (SD rats; intragastric, SD rats) was “relatively wide”, the “threshold dose for the loss of righting reflex” value (SD rats; intragastrically administered, SD rats) was 20 mg/kg and the CLint scaled at 1 µM ([1]; Rat liver microsomes) was 23 mL/min/kg. The half-life at 1 µM ([1]; Rat liver microsomes) was 1.8 h, the “Remaining amount % at 60 min” value ([1]; Rat liver microsomes 0.5 mg/mL, NADPH) was 68.3% and the microsomal CLint at 1 µM ([1]; Rat liver microsomes, read-out: CLint(mic)) was 13 µL/min/mg. The CLint scaled at 1 µM ([2]; Human liver microsomes) was less than 6.75 mL/min/kg, the half-life at 1 µM ([2]; Human liver microsomes) was greater than 3.1 h and the “Remaining amount % at 60 min” value ([2]; Human liver microsomes 0.5 mg/mL, NADPH) was 98.2%. For the same compound, the microsomal CLint at 1 µM ([2]; Human liver microsomes, read-out: CLint(mic)) was less than 7.5 µL/min/mg, the EC50 [3] was 67 nM and the Emax [3] was 754%.

From US20250368678A1, “19-NOR-C3,3-DISUBSTITUTED C21-AZACYCLO-S[…] AND METHOD FOR USING SAME” (SHANDONG LUYE PHARMACEUTICAL CO., LTD., priority 2022, published 2025)
